Data from ChEMBL document CHEMBL1773043, “Platensimycin and platencin congeners from Streptomyces platensis” (J Nat Prod, 2011).
Activity calls are given as the source filed them. The rule behind the calls is not given here.

Each compound was assayed on Streptococcus pneumoniae (assay: Antibacterial activity against Streptococcus pneumoniae at 64 ug/ml after 20 hrs).
Assay type: functional, organism-based
With `C[C@@]12C[C@]34CC1C[C@H](O2)C3[C@](C)(CCC(=O)Nc1c(O)ccc(C(=O)O)c1O)C(=O)C[C@H]4O` (some centres undefined) the Activity was “inactive”. `C[C@]12O[C@H]3CC1C[C@@]1(C=CC(=O)[C@@](C)(CCC(=O)O)C31)[C@H]2O` (some centres undefined) was tested, and the Activity was “inactive”. `COC(=O)CC[C@]1(C)C(=O)C=C[C@]23CC4C[C@H](O[C@]4(C)[C@@H]2O)C13` (some centres undefined) was tested, and the Activity was “inactive”. With `COC(=O)c1ccc(O)c(NC(=O)CC[C@]2(C)C(=O)C[C@@H](O)[C@]34CC5C[C@H](O[C@]5(C)C3)C42)c1O` (some centres undefined) the Activity was “inactive”. `COC(=O)c1ccc(O)c(NC(=O)CC[C@]2(C)C(=O)C=CC34CC(CCC32)C(O)(CO)C4)c1O` (some centres undefined) was tested, and the Activity was “inactive”. `C[C@@]12C[C@@]34C=CC(=O)[C@@](C)(CCC(=O)Nc5c(O)cccc5O)C3[C@H](CC1C4)O2` (some centres undefined) was tested, and the Activity was “inactive”. With `C[C@@]1(O)CC23C=CC(=O)[C@@](C)(CCC(=O)Nc4c(O)ccc(C(=O)O)c4O)C2CC1CC3` (some centres undefined) the Activity was “inactive”.

The compounds below were run on Enterococcus faecium (assay: Antibacterial activity against Enterococcus faecium at 64 ug/ml after 20 hrs).
Assay type: functional, organism-based
`C[C@@]12C[C@]34CC1C[C@H](O2)C3[C@](C)(CCC(=O)Nc1c(O)ccc(C(=O)O)c1O)C(=O)C[C@H]4O` (some centres undefined) was tested, and the Activity was “inactive”. In the case of `C[C@]12O[C@H]3CC1C[C@@]1(C=CC(=O)[C@@](C)(CCC(=O)O)C31)[C@H]2O` (some centres undefined), the Activity is reported as “inactive”. With `COC(=O)CC[C@]1(C)C(=O)C=C[C@]23CC4C[C@H](O[C@]4(C)[C@@H]2O)C13` (some centres undefined) the Activity was “inactive”. `COC(=O)c1ccc(O)c(NC(=O)CC[C@]2(C)C(=O)C[C@@H](O)[C@]34CC5C[C@H](O[C@]5(C)C3)C42)c1O` (some centres undefined) was tested, and the Activity was “inactive”. With `COC(=O)c1ccc(O)c(NC(=O)CC[C@]2(C)C(=O)C=CC34CC(CCC32)C(O)(CO)C4)c1O` (some centres undefined) the Activity was “inactive”. In the case of `C[C@@]12C[C@@]34C=CC(=O)[C@@](C)(CCC(=O)Nc5c(O)cccc5O)C3[C@H](CC1C4)O2` (some centres undefined), the Activity is reported as “inactive”. In the case of `C[C@@]1(O)CC23C=CC(=O)[C@@](C)(CCC(=O)Nc4c(O)ccc(C(=O)O)c4O)C2CC1CC3` (some centres undefined), the Activity is reported as “inactive”.

What follows are compounds tested on Escherichia coli (assay: Antibacterial activity against Escherichia coli at 64 ug/ml after 20 hrs).
Assay type: functional, organism-based
With `C[C@@]12C[C@]34CC1C[C@H](O2)C3[C@](C)(CCC(=O)Nc1c(O)ccc(C(=O)O)c1O)C(=O)C[C@H]4O` (some centres undefined) the Activity was “inactive”. `C[C@]12O[C@H]3CC1C[C@@]1(C=CC(=O)[C@@](C)(CCC(=O)O)C31)[C@H]2O` (some centres undefined) was tested, and the Activity was “inactive”. For `COC(=O)CC[C@]1(C)C(=O)C=C[C@]23CC4C[C@H](O[C@]4(C)[C@@H]2O)C13` (some centres undefined), the Activity was “inactive”. With `COC(=O)c1ccc(O)c(NC(=O)CC[C@]2(C)C(=O)C[C@@H](O)[C@]34CC5C[C@H](O[C@]5(C)C3)C42)c1O` (some centres undefined) the Activity was “inactive”. `COC(=O)c1ccc(O)c(NC(=O)CC[C@]2(C)C(=O)C=CC34CC(CCC32)C(O)(CO)C4)c1O` (some centres undefined) was tested, and the Activity was “inactive”. `C[C@@]12C[C@@]34C=CC(=O)[C@@](C)(CCC(=O)Nc5c(O)cccc5O)C3[C@H](CC1C4)O2` (some centres undefined) was tested, and the Activity was “inactive”. For `C[C@@]1(O)CC23C=CC(=O)[C@@](C)(CCC(=O)Nc4c(O)ccc(C(=O)O)c4O)C2CC1CC3` (some centres undefined), the Activity was “inactive”.

Each compound was assayed on Enterococcus faecalis (assay: Antibacterial activity against Enterococcus faecalis at 64 ug/ml after 20 hrs).
Assay type: functional, organism-based
For `C[C@@]12C[C@]34CC1C[C@H](O2)C3[C@](C)(CCC(=O)Nc1c(O)ccc(C(=O)O)c1O)C(=O)C[C@H]4O` (some centres undefined), the Activity was “inactive”. In the case of `C[C@]12O[C@H]3CC1C[C@@]1(C=CC(=O)[C@@](C)(CCC(=O)O)C31)[C@H]2O` (some centres undefined), the Activity is reported as “inactive”. For `COC(=O)CC[C@]1(C)C(=O)C=C[C@]23CC4C[C@H](O[C@]4(C)[C@@H]2O)C13` (some centres undefined), the Activity was “inactive”. In the case of `COC(=O)c1ccc(O)c(NC(=O)CC[C@]2(C)C(=O)C[C@@H](O)[C@]34CC5C[C@H](O[C@]5(C)C3)C42)c1O` (some centres undefined), the Activity is reported as “inactive”. For `COC(=O)c1ccc(O)c(NC(=O)CC[C@]2(C)C(=O)C=CC34CC(CCC32)C(O)(CO)C4)c1O` (some centres undefined), the Activity was “inactive”. For `C[C@@]12C[C@@]34C=CC(=O)[C@@](C)(CCC(=O)Nc5c(O)cccc5O)C3[C@H](CC1C4)O2` (some centres undefined), the Activity was “inactive”. For `C[C@@]1(O)CC23C=CC(=O)[C@@](C)(CCC(=O)Nc4c(O)ccc(C(=O)O)c4O)C2CC1CC3` (some centres undefined), the Activity was “inactive”.

These compounds were tested on Haemophilus influenzae (assay: Antibacterial activity against Haemophilus influenzae at 64 ug/ml after 20 hrs).
Assay type: functional, organism-based
`C[C@@]12C[C@]34CC1C[C@H](O2)C3[C@](C)(CCC(=O)Nc1c(O)ccc(C(=O)O)c1O)C(=O)C[C@H]4O` (some centres undefined) was tested, and the Activity was “inactive”. With `C[C@]12O[C@H]3CC1C[C@@]1(C=CC(=O)[C@@](C)(CCC(=O)O)C31)[C@H]2O` (some centres undefined) the Activity was “inactive”. In the case of `COC(=O)CC[C@]1(C)C(=O)C=C[C@]23CC4C[C@H](O[C@]4(C)[C@@H]2O)C13` (some centres undefined), the Activity is reported as “inactive”. With `COC(=O)c1ccc(O)c(NC(=O)CC[C@]2(C)C(=O)C[C@@H](O)[C@]34CC5C[C@H](O[C@]5(C)C3)C42)c1O` (some centres undefined) the Activity was “inactive”. With `COC(=O)c1ccc(O)c(NC(=O)CC[C@]2(C)C(=O)C=CC34CC(CCC32)C(O)(CO)C4)c1O` (some centres undefined) the Activity was “inactive”. For `C[C@@]12C[C@@]34C=CC(=O)[C@@](C)(CCC(=O)Nc5c(O)cccc5O)C3[C@H](CC1C4)O2` (some centres undefined), the Activity was “inactive”. With `C[C@@]1(O)CC23C=CC(=O)[C@@](C)(CCC(=O)Nc4c(O)ccc(C(=O)O)c4O)C2CC1CC3` (some centres undefined) the Activity was “inactive”.

Each compound was assayed against T1, 3-oxoacyl-[acyl-carrier-protein] synthase 2 (Staphylococcus aureus) (UniProt Q5TKS0) (assay: Inhibition of Staphylococcus aureus […] assessed as [2-14C]-malonyl CoA incorporation after 90 mins by cell free-based scintillation counting).
T1 sequence (whole entry): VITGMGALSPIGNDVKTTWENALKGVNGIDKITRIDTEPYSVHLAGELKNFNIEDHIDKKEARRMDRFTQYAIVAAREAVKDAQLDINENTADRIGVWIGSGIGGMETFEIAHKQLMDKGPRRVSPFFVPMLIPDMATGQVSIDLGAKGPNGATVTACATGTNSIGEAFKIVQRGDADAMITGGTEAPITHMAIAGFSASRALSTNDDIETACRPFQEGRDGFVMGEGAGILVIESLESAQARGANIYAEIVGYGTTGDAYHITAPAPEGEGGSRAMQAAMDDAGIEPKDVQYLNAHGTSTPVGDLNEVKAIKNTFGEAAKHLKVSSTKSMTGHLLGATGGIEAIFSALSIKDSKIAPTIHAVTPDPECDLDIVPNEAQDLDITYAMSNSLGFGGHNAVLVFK
For `C[C@@]12C[C@]34CC1C[C@H](O2)C3[C@](C)(CCC(=O)Nc1c(O)ccc(C(=O)O)c1O)C(=O)C[C@H]4O` (some centres undefined), the inhibition was “inactive”. `C[C@]12O[C@H]3CC1C[C@@]1(C=CC(=O)[C@@](C)(CCC(=O)O)C31)[C@H]2O` (some centres undefined) was tested, and the inhibition was “inactive”. With `COC(=O)CC[C@]1(C)C(=O)C=C[C@]23CC4C[C@H](O[C@]4(C)[C@@H]2O)C13` (some centres undefined) the inhibition was “inactive”. `COC(=O)c1ccc(O)c(NC(=O)CC[C@]2(C)C(=O)C[C@@H](O)[C@]34CC5C[C@H](O[C@]5(C)C3)C42)c1O` (some centres undefined) was tested, and the inhibition was “inactive”. With `COC(=O)c1ccc(O)c(NC(=O)CC[C@]2(C)C(=O)C=CC34CC(CCC32)C(O)(CO)C4)c1O` (some centres undefined) the inhibition was “inactive”. In the case of `C[C@@]12C[C@@]34C=CC(=O)[C@@](C)(CCC(=O)Nc5c(O)cccc5O)C3[C@H](CC1C4)O2` (some centres undefined), the inhibition is reported as “inactive”. In the case of `C[C@@]1(O)CC23C=CC(=O)[C@@](C)(CCC(=O)Nc4c(O)ccc(C(=O)O)c4O)C2CC1CC3` (some centres undefined), the inhibition is reported as “inactive”.

What follows are compounds tested on Staphylococcus aureus (assay: Antibacterial activity against Staphylococcus aureus at 64 ug/ml after 20 hrs).
Assay type: functional, organism-based
For `C[C@@]12C[C@]34CC1C[C@H](O2)C3[C@](C)(CCC(=O)Nc1c(O)ccc(C(=O)O)c1O)C(=O)C[C@H]4O` (some centres undefined), the Activity was “inactive”. For `C[C@]12O[C@H]3CC1C[C@@]1(C=CC(=O)[C@@](C)(CCC(=O)O)C31)[C@H]2O` (some centres undefined), the Activity was “inactive”. `COC(=O)CC[C@]1(C)C(=O)C=C[C@]23CC4C[C@H](O[C@]4(C)[C@@H]2O)C13` (some centres undefined) was tested, and the Activity was “inactive”. With `COC(=O)c1ccc(O)c(NC(=O)CC[C@]2(C)C(=O)C[C@@H](O)[C@]34CC5C[C@H](O[C@]5(C)C3)C42)c1O` (some centres undefined) the Activity was “inactive”. With `COC(=O)c1ccc(O)c(NC(=O)CC[C@]2(C)C(=O)C=CC34CC(CCC32)C(O)(CO)C4)c1O` (some centres undefined) the Activity was “inactive”. For `C[C@@]12C[C@@]34C=CC(=O)[C@@](C)(CCC(=O)Nc5c(O)cccc5O)C3[C@H](CC1C4)O2` (some centres undefined), the Activity was “inactive”. With `C[C@@]1(O)CC23C=CC(=O)[C@@](C)(CCC(=O)Nc4c(O)ccc(C(=O)O)c4O)C2CC1CC3` (some centres undefined) the Activity was “inactive”.
